Measured values: patent US20180188224A1, “METHOD FOR CONSTRUCTING A SENSORY SPACE” (CENTRE SCIENTIFIQUE ET TECHNIQUE DU BATIMENT (CSTB), priority 2015, published 2018)

Tests used:
[1] = test system: four non-smoking volunteers (2 men and 2 women); experiment: Hedonic score, 11-point scale (0 very unpleasant to 10 very pleasant, 5 neutral); format: in vivo, human
Method: In this test, four non-smoking volunteers (2 men and 2 women) were chosen from 12 people for their performance in taste recognition. Their mean age was 32 years, ranging from 24 to 40 years. […] These four people were trained for several months to recognize and detect the four basic tastes, and also regarding the procedures of sensory and physiological analysis.
The four basic tastes (sweet, salty, sour and bitter) were used. The solutions were prepared with citric acid for the sour taste, caffeine for the bitter taste, sodium chloride for the salty taste and sucrose for the sweet taste (all purchased from Sigma Aldrich, France) in Evian water. Evian water was also used as control and blank. Each taste was prepared with the four concentrations mentioned in table 1.
The amount of solution to be tested was standardized at 10 ml. In order to impregnate the whole of the oral cavity, the subjects kept the solution in their mouth for 5 s before swallowing it.
The sessions were individual and the subjects were asked not to eat or drink anything for at least 1 h before the test. They arrived 15 min before the start of the session in order to acclimatize to the environmental conditions, in particular the temperature of the room (kept constant at 23° C.) and to be resting seated on a comfortable chair. The 16 solutions for testing and two additional samples of water containing solely Evian water, added to the references, were presented monadically following a test order determined from a “balanced incomplete block design”. During a session, 9 samples out of 18 were presented to minimize sensory fatigue. In addition, a sample of Evian was always tested as a “blank” sample in order to avoid the first-order effect (Lawless, H. T. & Heymann, H., 2010, Sensory evaluation of food: Principles and practices. Springer, New York) and was excluded from the analysis. A light signal was sent to give the instruction to test the sample. When the disturbance to the nervous system returned to its baseline level (after approximately 1 min), a second light signal indicated to the subjects that they should complete a questionnaire regarding the stimulus tested previously. The first part of the questionnaire was linked to the identification of the taste (i.e. determining the quality of the taste); the subjects had to choose between five labels: sweet, salty, sour, bitter or neutral. They then had to assign a taste intensity score on an 11-point scale (from 0 “not intense” (i.e. taste of Evian only) to 10 “very intense”) and finally to give a hedonic score on an 11-point scale (from 0 “very unpleasant” to 10 “very pleasant”, 5 being “neutral”).
This procedure was repeated for each of the 9 stimuli. A session lasted approximately 45 min including a debriefing at the end of the test to ensure understanding of the sense of the signal variations. The experiment was repeated 12 times per subject, meaning that the data are composed of 6 data sets per subject and per product and 12 data sets for the Evian product per subject. Thus, the database consists of 432 samples.
The effect of the taste on the hedonic and intensity scores was analyzed by an analysis of variance (ANOVA) including the product effect, the subject effect and the product-subject interaction. The subject effect was fixed because there were only 4 subjects and the results could only be applied to a particular schema. The differences were considered to be significant at a level of 0.05.

subject 3 = experiment: Skin blood microcirculation (SKBF) response to taste stimuli, PCA sensory space (ESRP); format: in vivo, human; details: concentration 4
From the text: A Periflux PF 5010 (Perimed AB, Sweden) system was chosen, which enables non-invasive monitoring of blood perfusion in the capillaries, arterioles and venules.
The unit of blood perfusion is arbitrary and corresponds to the product of the mean rate of displacement of the red blood cells by their concentration. The system Periflux PF 5010 has a 780 nm, 1 mm diameter laser beam without thermal effect. An optical fiber probe PR407 is used. The low-energy laser beam is transmitted by the probe to the tissue. A portion of the light reflects off the static structures and another portion of the light reflects off the moving blood cells. When the light reflects off a moving cell, the wavelength is modified, which corresponds to the Doppler effect. The scattered light collected by the optical fiber is used to calculate the perfusion value. The measurement is expressed in perfusion units (PU). Recording was carried out on the pad of the index finger of the non-dominant hand, due to the high level of vascularization of this zone. The perfusion signals were recorded by an 8-channel PowerLab PL35088/35 acquisition system; the data were collected at a frequency of 1 kHz and analyzed by the LabChart® software (AD instruments Ltd, United Kingdom).
. Then, the peak was analyzed manually by selecting the whole of the peak and analyzing it with the LabChart® software (FIG. 1).
Several shape parameters were extracted from the signal (i.e. amplitude, duration, gradient). […]
The SKBF responses were analyzed individually by one-way ANOVA (product effect), the subjects having their own “preferential channel” (Lacey, J. I., Bateman, D. E. & VanLEHN, R., 1953, Autonomic response specificity: An experimental study. Psychosomatic Medicine, 15, 8-21). […]

[2] = cited from earlier work; for detection threshold concentration of the basic taste: literature (Purves 2005; Robinson 2005); for detection threshold: representative compound of a primary taste

Structure (SMILES)	hedonic score ([1]; concentration 4 (highest))	SKBF disturbance (signal width, area of the peak; ANOVA) (subject 3)	detection threshold concentration of the basic taste [2]	detection threshold [2]	hedonic score ([1]; each of the NaCl concentrations (one value given))
O=C(O)CC(O)(CC(=O)O)C(=O)O [Citric acid, citric acid]	3.3±2.4	significantly stronger disturbance than the others	approximately 2 mmol·l^−1	0.384 to 0.5 g/L	–
[Cl-].[Na+] [NaCl, sodium chloride]	–	significantly stronger disturbance than the others	approximately 10 mmol·l^−1	0.584 g/L	1.3±0.9
